Series [1] concerns HCV nonstructural protein NS5A. In words: Quantitative Western blot assay. Format: cell-based, Hepatitis C virus (HCV). The conditions noted are these: 9-13 replicon cells, 48 hours with compound, second symbol of Replicon/Western. Here is the method: Alternatively, the inhibitory activity of the compounds can be confirmed using a quantitative Western immunoblot assay utilizing antibodies specific for HCV non-structural proteins, such as NS3, NS4A NS5A and NS5B. In one embodiment of this assay, replicon cells are treated with varying concentrations of test compound to determine the concentration of test compound that yields a 50% reduction in the amount of a non-structural protein produced as compared to a control sample (IC50). A single non-structural protein may be quantified or multiple non-structural proteins may be quantified. Antibodies suitable for carrying out such immunoblot assays are available commercially (e.g., from BIODESIGN International, Saco, Me.).
Certain exemplary compounds of the invention were also tested for their ability to inhibit HCV replication using a quantitative Western blot analysis with antibodies specific for the HCV nonstructural protein NS5A. Actively dividing 9-13 replicon cells were seeded into 6-well plates at a density of 1×10^5 cells/well in a volume of 2 ml/well and incubated at 37° C. and 5% CO2 for 24 hours. Various concentrations of test compounds (in a volume of 10 ul) were added to the wells and the cells incubated for another 48 hours. Protein samples were prepared from the cultured cells, resolved on a SDS-PAGE gel and transferred to a nitrocellulose membrane. The membrane was blocked with 5% non-fat milk in PBS for 1 hour at room temperature. Primary antibody (anti NS5A antibody; BIODESIGN International, Saco, Me.) incubation was performed for 1 hour at room temperature, after which the membrane was washed 3 times (for 15 min per time) with PBST (PBS plus 0.1% Tween 20). Horseradish peroxidase conjugated secondary antibody incubation was performed for 1 hour at room temperature and the membrane was washed 3 times (for 15 min per time) with PBST. The membrane was then soaked in substrate solution (Pierce) and exposed to a film or quantified using an imager. In this assay, the amount of test compound that yielded a 50% reduction in the amount of NS5A protein translated as compared to a control sample (IC50) was determined.

The target of a further series is HCV replicon. The experiment in a line: HCV replicon assay (luciferase). Format: cell-based, Hepatitis C virus (HCV). As to conditions: 5-2 Luc replicon cells, 24 hours with compound, luciferase emission; first symbol of Replicon/Western. The text has this:
In one embodiment, the inhibitory activity of the compounds can be confirmed in a replicon assay that assesses the ability of a test compound to block or inhibit HCV replication in replicon cells. One example of a suitable replicon assay is the liver cell-line Huh 7-based replicon assay described in Lohmann et al., 1999, Science 285:110-113. A specific example of this replicon assay which utilizes luciferase translation is provided in the Examples Section. In one embodiment of this assay, the amount of test compound that yields a 50% reduction in translation as compared to a control cell (IC50) may be determined.
The inhibitory activity of certain exemplary compounds of the invention was confirmed using an HCV replicon assay. The HCV replicon can include such features as the HCV 5′ untranslated region including the HCV IRES, the HCV 3′ untranslated region, selected HCV genes encoding HCV polypeptides, selectable markers, and a reporter gene such as luciferase, GFP, etc. In the assay, actively dividing 5-2 Luc replicon-comprising cells (obtained from Rolf Bartenschlager; see Lohmann et al., 1999, Science 285:110-113) were seeded at a density of between about 5,000 and 7,500 cells/well onto 96 well plates (about 90 μl of cells per well) and incubated at 37° C. and 5% CO2 for 24 hours. Then, the test compound (in a volume of about 10 μl) was added to the wells at various concentrations and the cells were incubated for an additional 24 hours before luciferase assay. The media was aspirated from each well and Bright-Glo (Promega, Madison, Wis.) luciferase assay reagents were added to each well according to the manufacturer's instructions. Briefly, the Bright-Glo reagent was diluted 1:1 with PBS and 100 μl of diluted reagent was added to each well. After 5 min of incubation at room temperature, luciferin emission was quantified with a luminometer. In this assay, the amount of test compound that yielded a 50% reduction in luciferase emission (IC50) was determined.
Background: Replicon systems follow genome replication, usually without infectious particles.

The subject of series [2] is 5-2 Luc cells, 9-13 cells or Huh-7 cells. The experiment in a line: Cytotoxicity assay (Cell Titer Glo). As to conditions: read-out: IC50 cytotoxicity (number of viable cells), liver cells including an HCV replicon, 24 hr.
Experimental: In the assay, cells were seeded onto 96-well plates (approx. 7500 cells/well in a volume of 90 μl) and grown for 24 hr at 37° C. On day 2, various concentrations of test compound (in a volume of 10 μl) were added to the wells and the cells were grown for an additional 24 hr at 37° C. On day 3, an ATP-dependent R-Luciferase assay (Cell Titer Glo assay) was performed to determine the number of viable cells.

Where only a bound is given, the exact number is not on record here.

`Cc1ccc(F)c(-c2cc(-c3cccc(NC(=O)C(Cl)Cl)c3)on2)c1Cl` [Compound 15, 2,2-Dichloro-N-[3-[3-(2-chloro-6-fluoro-3-methylphenyl)-5-isoxazolyl]phenyl] Acetamide]: the IC50 (in series [1]; on HCV replicon) was ≤ 10 µM each time.

In the case of `Cc1cc(C)c(-c2cc(-c3cccc(NC(=O)C(Cl)Cl)c3)on2)c(C)c1` [Compound 69, 2,2-Dichloro-N-[3-[3-(2,4,6-trimethylphenyl)-5-isoxazolyl]phenyl] Acetamide], the values for the IC50 (on HCV replicon; in series [2]) were ≤ 10 µM and 3 µM, respectively.

As for `O=C(Nc1ccc(F)c(-c2cc(-c3c(Cl)cccc3Cl)no2)c1)C(Cl)Cl` [Compound 13, 2,2-Dichloro-N-[3-[3-(2,6-dichlorophenyl)-5-isoxazolyl]-4-fluorophenyl] Acetamide], the IC50 (in series [1]; on HCV replicon) was ≤ 10 µM each time.

Turning to `O=C(Nc1cccc(-c2cc(-c3c(Cl)cccc3Cl)on2)c1)C(Cl)Cl` [Compound 5, 2,2-Dichloro-N-[3-[5-(2,6-dichlorophenyl)-3-isoxazolyl]phenyl] Acetamide], the IC50 (in series [1]; on HCV replicon) was ≤ 10 µM in each case.

With `CSc1cccc(F)c1-c1cc(-c2cccc(NC(=O)C(Cl)Cl)c2)on1` [Compound 11, 2,2-Dichloro-N-[3-[3-(2-fluoro-6-thiomethylphenyl)-5-isoxazolyl]phenyl] Acetamide], the IC50 (in series [1]; at HCV replicon) was ≤ 10 µM in each case.

Take `O=C(Nc1cccc(-c2cc(-c3c(Cl)cc(OCCN4CCOCC4)cc3Cl)no2)c1)C(Cl)Cl` [Compound 75, 2,2-Dichloro-N-[3-[3-[2,6-dichloro-4-(N-morpholinoethyleneoxy)phenyl]-5-isoxazolyl]-phenyl] Acetamide]: the figures for the IC50 (in series [1]; at HCV replicon) were ≤ 10 µM and > 10 µM, respectively.

Take `O=C(Nc1cccc(-c2cc(-c3c(F)cccc3Cl)no2)c1)C(Cl)Cl` [Compound 27, 2,2-Dichloro-N-[3-[3-(2-chloro-6-fluorophenyl)-5-isoxazolyl]phenyl] Acetamide]: the IC50 (in series [1]; on HCV replicon) was ≤ 10 µM each time.

Consider `O=C(Nc1cccc(-c2cc(-c3cccc(Cl)c3Cl)no2)c1)C(Cl)Cl` [Compound 3, 2,2-Dichloro-N-[3-[3-(2,3-dichlorophenyl)-5-isoxazolyl]phenyl] Acetamide], for which the IC50 – broadly, the point on the concentration scale where inhibition reaches its midpoint – in series [1] is ≤ 10 µM; at HCV replicon, > 10 µM.

Turning to “2,2-Dichloro-N-[3-[3-[2-fluoro-(6-N-morpholinosulfamoyl)phenyl]-5-isoxazolyl]-phenyl] Acetamide [Compound 21]”, the IC50 (in series [1]; on HCV replicon) was ≤ 10 µM in each case.

Take “2,2-Dichloro-N-[3-[3-[2-(N-morpholino)-6-trifluoromethylphenyl)-5-isoxazolyl]phenyl] Acetamide [Compound 37]”: the IC50 (in series [1]; at HCV replicon) was ≤ 10 µM throughout.

In the case of `O=C(CI)Nc1cccc(-c2cc(-c3c(Cl)cccc3Cl)no2)c1` [Compound 101, 2-Iodo-N-[3-[3-(2,6-dichlorophenyl)-5-isoxazolyl]phenyl] Acetamide], the IC50 in series [1] is > 10 µM; at HCV replicon, ≤ 10 µM.

For `O=C(Nc1cc(-c2cc(-c3c(Cl)cccc3Cl)no2)ccc1F)C(Cl)Cl` [Compound 1, 2,2-Dichloro-N-[3-[3-(2,6-dichlorophenyl)-5-isoxazolyl]-6-fluorophenyl] Acetamide], the IC50 (in series [1]; on HCV replicon) was ≤ 10 µM each time.

As to `Cc1cccc(-c2cc(-c3cccc(NC(=O)C(Cl)Cl)c3)on2)c1C` [Compound 163, 2,2-Dichloro-N-[3-[3-(2,3-dimethylphenyl)-5-isoxazolyl]phenyl] Acetamide], the IC50 (in series [1]; on HCV replicon) was > 10 µM throughout.

As to `O=C(Nc1cccc(-c2cc(-c3c(Cl)cccc3N3CCOCC3)no2)c1)C(Cl)Cl` [Compound 7, 2,2-Dichloro-N-[3-[3-[2-chloro-6-(N-morpholino)phenyl]-5-isoxazolyl]phenyl] Acetamide], the concentration for half-maximal inhibition (IC50) (in series [1]; on HCV replicon) was ≤ 10 µM in each case.

For the molecule `COC(=O)c1ccc(Cl)c(-c2cc(-c3cccc(NC(=O)C(Cl)Cl)c3)on2)c1Cl` [Compound 135, 2,2-Dichloro-N-[3-[3-(3-carbomethoxy-2,6-dichlorophenyl)-5-isoxazolyl]phenyl] Acetamide], the IC50 (in series [1]; at HCV replicon) was > 10 µM in each case.

The values are drawn from US6759538B2, “Substituted diphenyl heterocycles useful for treating HCV infection” (priority 2001, dated 2004).
